Tested on: young and elderly healthy volunteers
Test: Cognitive Event-Related Potentials (ERP) latency composite score, correlated with plasma drug concentrations
Type: in vivo, human
Conditions: plasma concentration at 1.5 h in subjects with best ERP latencies composite score (ERP at Day 10, 6 h post-dose)
Method: The study below was a double blind placebo control study performed in accordance with the European Medicines Agency ICH-E6 (R1) guideline recommendations and the French law n° 2004-806, Aug. 9, 2004 relative to public health law. The study was a preliminary study whose one of the objectives was to assess baclofen and acamprosate combinatorial treatment to improve cognition in young and elderly healthy volunteers. The study was conducted on a cohort of 24 human subjects.
Briefly, the duration of treatment was of 10 days.
Electrophysiological measurement of Cognitive Event-Related Potentials (ERPs) were recorded to assess the cognitive performances of the subjects. ERPs are the electrophysiological response to a stimulus and could serve as a surrogate biological marker of cognitive performances. Here, the cognitive task required paying attention and to count odd stimuli according to a specific protocol. Potential is recorded during the test. An ERP latency composite score is determined from the different derivations. […]
A correlation was searched between each of the different endpoints (i.e. the cognitive tests, or the ERP latency composite score) and drug concentrations determined at each sampling time.
Pearson's correlation coefficient was determined for each of the endpoints and different plasmatic concentrations measured as a function of time.

| Structure (SMILES) | Most efficient plasmatic concentration in trial |
| --- | --- |
| NCC(CC(=O)O)c1ccc(Cl)cc1 (centres unmarked) [baclofen] | ≥500 ng/mL |
| CC(=O)NCCCS(=O)(=O)O [acamprosate] | >2.5 ng/mL |
